Data: US20170007663A1, “METHODS AND COMPOSITIONS FOR TREATING AND […] DYSFUNCTION” (CORNELL UNIVERSITY, priority 2013, published 2017)
Non-standard residues stand in square brackets, D forms with d. No end group written: not given here.

How the values were obtained:
[1] = tested on: several mammalian cell types; conditions: cited from earlier work
[2] = molecular target: mu-opioid receptor (Homo sapiens, UniProt P35372); conditions: stated without a described test; cited from earlier work
[3] = tested on: cerebral metabolic rate of oxygen (CMRO); assay: Burst suppression model (Ching et al.) for cerebral metabolic rate of oxygen
Source text: A burst suppression model, as described in Ching et al., PNAS, 109(8): 3095-3100, (2012), will be used to determine the effect of D-Arg-2′,6′-Dmt-Lys-Phe-NH2 on CMRO. A range of 10^−9 to 10^−6 molar concentration of D-Arg-2′,6′-Dmt-Lys-Phe-NH2 will be assayed and compared to untreated and control peptide assays.

Chain of mu-opioid receptor (P35372 whole entry, species assumed): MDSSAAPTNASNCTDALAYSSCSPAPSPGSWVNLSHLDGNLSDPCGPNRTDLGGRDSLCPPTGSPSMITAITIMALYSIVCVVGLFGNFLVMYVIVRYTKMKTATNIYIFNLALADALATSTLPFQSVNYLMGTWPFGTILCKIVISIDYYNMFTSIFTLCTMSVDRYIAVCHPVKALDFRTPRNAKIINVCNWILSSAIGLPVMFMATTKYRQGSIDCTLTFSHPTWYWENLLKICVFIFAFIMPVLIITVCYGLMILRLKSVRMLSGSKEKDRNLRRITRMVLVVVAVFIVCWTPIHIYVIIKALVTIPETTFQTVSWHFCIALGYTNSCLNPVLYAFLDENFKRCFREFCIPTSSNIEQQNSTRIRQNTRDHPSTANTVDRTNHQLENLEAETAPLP

Substance | penetration of the plasma membrane [1] | mu-opioid receptor agonist activity [2] | CMRO ([3]; 10^−9 to 10^−6 molar, compared to untreated and control peptide assays) | cerebral metabolism / neuronal cellular and network function ([3]; burst suppression model, FIG. 1)
2′,6′-Dmt-D-Arg-Phe-Lys-NH2 | readily penetrates the plasma membrane of several mammalian cell types in an energy-independent manner |  |  | 
D-Arg-2′,6′-Dmt-Lys-Phe-NH2 |  | does not have mu-opioid receptor agonist activity | increase in CMRO | increase in cerebral metabolism and/or a restoration of neuronal cellular and network function
F[dR]FK-NH2 |  | does not have mu-opioid receptor agonist activity |  | 
Tyr-D-Arg-Phe-Lys-NH2 |  | has mu-opioid receptor agonist activity |  | 
